Experimental data reported in PubChem BioAssay AID248 (DTP/NCI, 2004).
Values joined by “and” are separate entries in the source; they are usually repeats but may differ in a detail not shown here. Equal values may be shown once. Inconclusive results and toxic doses are left out. Rule as the data show it: active = T/C of 150% or more; inactive = T/C below 125%.

Test system: L1210 leukemia ip in BDF1 mice, survival T/C
Assay: NCI In Vivo Anticancer Drug Screen. Data for tumor model L1210 Leukemia (intraperitoneal) in B6D2F1 (BDF1) mice
Details: endpoint: mean survival time, higher = longer survival
Procedure, shortened: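 Mice bearing the transplanted tumor received compound or vehicle. Survival of the treated group was divided by that of the vehicle-treated control group to give the ratio.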

[1] = dose: 25.0 mg/kg/injection, schedule: Q04DX003 (ip), vehicle: saline with Tween-80
[2] = dose: 50.0 mg/kg/injection, schedule: Q04DX003 (ip), vehicle: saline with Tween-80
[3] = dose: 100.0 mg/kg/injection, schedule: Q01DX001 (ip), vehicle: saline
[4] = dose: 200.0 mg/kg/injection, schedule: Q01DX001 (ip), vehicle: saline
[5] = dose: 400.0 mg/kg/injection, schedule: Q01DX001 (ip), vehicle: saline
[6] = dose: 100.0 mg/kg/injection, schedule: Q04DX003 (ip), vehicle: saline with Tween-80
[7] = dose: 50.0 mg/kg/injection, schedule: Q01DX009 (ip), vehicle: saline
[8] = dose: 100.0 mg/kg/injection, schedule: Q01DX009 (ip), vehicle: saline
[9] = dose: 200.0 mg/kg/injection, schedule: Q01DX009 (ip), vehicle: saline
[10] = dose: 100.0 mg/kg/injection, schedule: Q04DX003 (ip), vehicle: saline
[11] = dose: 100.0 mg/kg/injection, schedule: Q04DX002 (ip), vehicle: saline with Tween-80
[12] = dose: 200.0 mg/kg/injection, schedule: Q04DX002 (ip), vehicle: saline with Tween-80
[13] = dose: 400.0 mg/kg/injection, schedule: Q04DX002 (ip), vehicle: saline with Tween-80
[14] = dose: 100.0 mg/kg/injection, schedule: Q01DX001 (ip), vehicle: carboxymethylcellulose (CMC)
[15] = dose: 200.0 mg/kg/injection, schedule: Q01DX001 (ip), vehicle: carboxymethylcellulose (CMC)
[16] = dose: 400.0 mg/kg/injection, schedule: Q01DX001 (ip), vehicle: carboxymethylcellulose (CMC)
[17] = dose: 200.0 mg/kg/injection, schedule: Q04DX003 (ip), vehicle: saline with Tween-80
[18] = dose: 400.0 mg/kg/injection, schedule: Q04DX003 (ip), vehicle: saline with Tween-80

Measured: T/C

IC1CCCOC1[n+]1ccccc1 (stereo unspecified)
inactive: dose: 12.5 mg/kg/injection, schedule: Q01DX009 (ip), vehicle: saline with Tween-80 102 % of control | dose: 12.5 mg/kg/injection, schedule: Q04DX003 (ip), vehicle: saline with Tween-80 96 % of control | dose: 25.0 mg/kg/injection, schedule: Q01DX009 (ip), vehicle: saline with Tween-80 100 % of control | [1] 104 % of control | dose: 50.0 mg/kg/injection, schedule: Q01DX009 (ip), vehicle: saline with Tween-80 103 % of control | [2] 98 % of control

CC1CCC(C(C)C)C(OC(=O)Nc2ccc(S(=O)(=O)N(C)C)cc2)C1 (stereo unspecified)
inactive: [3] 94 % of control | [4] 89 % of control | [5] 91 % of control

CN(C)NC(=O)C(c1ccccc1)c1ccccc1
inactive: [1] 100 % of control | [2] 97 % of control | [6] 92 % of control and 97 % of control

CCCCCCCCCCCC(=O)N(C)CC(=O)O
inactive: [3] 96 % of control

O=C(CC(O)(C(F)(F)F)C(F)(F)F)C(Cl)C(O)(C(F)(F)F)C(F)(F)F (stereo unspecified)
inactive: dose: 25.0 mg/kg/injection, schedule: Q01DX001 (ip), vehicle: other 104 % of control | dose: 50.0 mg/kg/injection, schedule: Q01DX001 (ip), vehicle: other 86 % of control

O=C(O)CC(NC(=O)c1ccccc1)C(=O)O (stereo unspecified)
inactive: [7] 93 % of control | [8] 89 % of control | [9] 97 % of control

N#C/C(=C\c1ccc(Cl)cc1)c1cccc2ccccc12
inactive: dose: 100.0 mg/kg/injection, schedule: Q01DX009 (ip), vehicle: Klucel (hydroxypropylcellulose) (HPC) 92 % of control | dose: 200.0 mg/kg/injection, schedule: Q01DX009 (ip), vehicle: Klucel (hydroxypropylcellulose) (HPC) 92 % of control | dose: 400.0 mg/kg/injection, schedule: Q01DX009 (ip), vehicle: Klucel (hydroxypropylcellulose) (HPC) 90 % of control

OCCN1CC1
inactive: dose: 1.0 mg/kg/injection, schedule: Q01DX009 (ip), vehicle: saline 92 % of control | dose: 1.56 mg/kg/injection, schedule: Q01DX009 (ip), vehicle: saline 100 % of control | dose: 2.3 mg/kg/injection, schedule: Q01DX009 (ip), vehicle: saline 96 % of control | dose: 3.12 mg/kg/injection, schedule: Q01DX009 (ip), vehicle: saline 120 % of control | dose: 6.25 mg/kg/injection, schedule: Q01DX009 (ip), vehicle: saline 94 % of control

Cn1c(O)c(C=N)c(=O)n(C)c1=O
inactive: dose: 25.0 mg/kg/injection, schedule: Q01DX009 (ip), vehicle: saline 101 % of control | [7] 100 % of control | [8] 87 % of control | [10] 98 % of control

CC(=O)OCC1OC(OC2=C(c3ccccc3)C(=O)C(OC3OC(COC(C)=O)C(OC(C)=O)C(OC(C)=O)C3OC(C)=O)=C(c3ccccc3)C2=O)C(OC(C)=O)C(OC(C)=O)C1OC(C)=O (stereo unspecified)
inactive: [11] 91 % of control | [12] 91 % of control | [13] 95 % of control

CC1CC(=O)c2c(cc3c(-c4c(O)cc(O)c5c(O)c6c(cc45)OC(C)CC6=O)c(O)cc(O)c3c2O)O1 (stereo unspecified)
inactive: dose: 100.0 mg/kg/injection, schedule: Q04DX003 (ip), vehicle: carboxymethylcellulose (CMC) 103 % of control | dose: 200.0 mg/kg/injection, schedule: Q04DX003 (ip), vehicle: carboxymethylcellulose (CMC) 92 % of control

Clc1nc2ccccc2c2ccccc12
inactive: dose: 43.0 mg/kg/injection, schedule: Q01DX001 (ip), vehicle: carboxymethylcellulose (CMC) 96 % of control | dose: 85.0 mg/kg/injection, schedule: Q01DX001 (ip), vehicle: carboxymethylcellulose (CMC) 92 % of control | dose: 170.0 mg/kg/injection, schedule: Q01DX001 (ip), vehicle: carboxymethylcellulose (CMC) 92 % of control

O=C(O)c1cc(O)ccc1N=Nc1ccccc1
inactive: [14] 95 % of control | [15] 95 % of control | [16] 98 % of control

C=NC
inactive: [3] 105 % of control | [10] 103 % of control

CCCC1C/C(=C\NC(N)=O)C(=O)O1 (stereo unspecified)
inactive: dose: 100.0 mg/kg/injection, schedule: Q01DX005 (ip), vehicle: saline with Tween-80 100 % of control | [6] 104 % of control | dose: 200.0 mg/kg/injection, schedule: Q01DX005 (ip), vehicle: saline with Tween-80 100 % of control | [17] 96 % of control | dose: 400.0 mg/kg/injection, schedule: Q01DX005 (ip), vehicle: saline with Tween-80 112 % of control | [18] 101 % of control

CCC1(O)C(=O)OCc2c1ccn(C)c2=O (stereo unspecified)
inactive: dose: 18.7 mg/kg/injection, schedule: Q01DX001 (ip), vehicle: saline 113 % of control | dose: 37.5 mg/kg/injection, schedule: Q01DX001 (ip), vehicle: saline 105 % of control | dose: 75.0 mg/kg/injection, schedule: Q01DX001 (ip), vehicle: saline 102 % of control | dose: 150.0 mg/kg/injection, schedule: Q01DX001 (ip), vehicle: saline 102 % of control

CCC(C)NC(=O)/C=C\C(=O)O (stereo unspecified)
inactive: [11] 95 % of control | [12] 92 % of control | [13] 100 % of control

CCNC(=O)Nc1ccc(C(=O)O)c(O)c1 (tested in a mixture with another compound)
inactive: [6] 97 % of control | dose: 100.0 mg/kg/injection, schedule: Q04DX003 (sc), vehicle: olive oil, sesame oil, peanut oil 97 % of control | [17] 92 % of control | dose: 200.0 mg/kg/injection, schedule: Q04DX003 (sc), vehicle: olive oil, sesame oil, peanut oil 102 % of control | [18] 102 % of control | dose: 400.0 mg/kg/injection, schedule: Q04DX003 (sc), vehicle: olive oil, sesame oil, peanut oil 97 % of control

CCOP(=O)(OCC)OCCCN(CC)CC
inactive: [7] 101 % of control | [8] 96 % of control and 114 % of control | [10] 101 % of control | [9] 94 % of control and 105 % of control | dose: 200.0 mg/kg/injection, schedule: Q04DX003 (ip), vehicle: saline 98 % of control

C=C1C[C@]23C[C@@]1(O)CC[C@H]2[C@@]12C=C[C@H](O)[C@@](C)(C(=O)O1)[C@H]2[C@@H]3C(=O)O
inactive: [14] 94 % of control | [3] 104 % of control | dose: 100.0 mg/kg/injection, schedule: Q01DX009 (ip), vehicle: acetone 97 % of control | [15] 96 % of control | [4] 104 % of control | dose: 200.0 mg/kg/injection, schedule: Q01DX009 (ip), vehicle: acetone 94 % of control | [16] 94 % of control | [5] 104 % of control | dose: 400.0 mg/kg/injection, schedule: Q01DX009 (ip), vehicle: acetone 95 % of control | dose: 800.0 mg/kg/injection, schedule: Q01DX009 (ip), vehicle: acetone 92 % of control

CCOc1ccc(-n2c(O)c(N=Nc3ccc(Br)cc3)c(=O)n(-c3ccc(OC)cc3)c2=S)cc1
inactive: dose: 50.0 mg/kg/injection, schedule: Q01DX001 (ip), vehicle: Klucel (hydroxypropylcellulose) (HPC) 94 % of control | dose: 100.0 mg/kg/injection, schedule: Q01DX001 (ip), vehicle: Klucel (hydroxypropylcellulose) (HPC) 94 % of control | dose: 200.0 mg/kg/injection, schedule: Q01DX001 (ip), vehicle: Klucel (hydroxypropylcellulose) (HPC) 94 % of control

CC(C)(C)c1cccc(C(C)(C)C)n1
inactive: [6] 97 % of control | [17] 105 % of control | [18] 115 % of control

CC(C)(C)NP(c1ccccc1)c1ccccc1
inactive: [3] 101 % of control | [4] 104 % of control | [5] 98 % of control
